“And” between values parts separate entries of the source, which are not always exact repeats. Equal values may be shown once. Toxic doses and inconclusive results are not listed. Rule for the calls: active = survival T/C of 150% or more; inactive = T/C below 125% in these data.
Tested on: P388 leukemia ip, CD2F1 mice, survival T/C
Assay: NCI In Vivo Anticancer Drug Screen. Data for tumor model P388 Leukemia (intraperitoneal) in CD2F1 (CDF1) mice
Settings: endpoint: median survival time, higher = longer survival
Outline: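 Mice carrying the transplanted tumor received test compound or vehicle. Survival was recorded in each group, and the value is the treated-group measurement divided by that of the vehicle-treated control group.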

[1] = dose: 12.5 mg/kg/injection, schedule: Q01DX009 (ip), vehicle: saline with Tween-80
[2] = dose: 25.0 mg/kg/injection, schedule: Q01DX009 (ip), vehicle: saline with Tween-80
[3] = dose: 50.0 mg/kg/injection, schedule: Q01DX009 (ip), vehicle: saline with Tween-80
[4] = dose: 100.0 mg/kg/injection, schedule: Q04DX003 (ip), vehicle: saline
[5] = dose: 200.0 mg/kg/injection, schedule: Q04DX003 (ip), vehicle: saline
[6] = dose: 400.0 mg/kg/injection, schedule: Q04DX003 (ip), vehicle: saline
[7] = dose: 100.0 mg/kg/injection, schedule: Q01DX001 (ip), vehicle: Klucel (hydroxypropylcellulose) (HPC)
[8] = dose: 200.0 mg/kg/injection, schedule: Q01DX001 (ip), vehicle: Klucel (hydroxypropylcellulose) (HPC)
[9] = dose: 15.0 mg/kg/injection, schedule: Q01DX005 (ip), vehicle: Klucel (hydroxypropylcellulose) (HPC)
[10] = dose: 60.0 mg/kg/injection, schedule: Q01DX005 (ip), vehicle: saline with Tween-80
[11] = dose: 100.0 mg/kg/injection, schedule: Q01DX009 (ip), vehicle: saline
[12] = dose: 50.0 mg/kg/injection, schedule: Q01DX005 (ip), vehicle: saline with Tween-80
[13] = dose: 100.0 mg/kg/injection, schedule: Q01DX005 (ip), vehicle: saline with Tween-80
[14] = dose: 100.0 mg/kg/injection, schedule: Q01DX009 (ip), vehicle: saline with Tween-80

Measured: T/C

CN(C)CCC(=O)c1ccc(C(=O)CCN(C)C)cc1
inactive: dose: 25.0 mg/kg/injection, schedule: Q01DX005 (ip), vehicle: saline 108 % of control | dose: 50.0 mg/kg/injection, schedule: Q01DX005 (ip), vehicle: saline 107 % of control | dose: 100.0 mg/kg/injection, schedule: Q01DX005 (ip), vehicle: saline 107 % of control

c1ccc2c[n+](CCCCCCCCCC[n+]3ccc4ccccc4c3)ccc2c1
inactive: dose: 1.25 mg/kg/injection, schedule: Q01DX009 (ip), vehicle: saline 94 % of control | dose: 2.5 mg/kg/injection, schedule: Q01DX009 (ip), vehicle: saline 101 % of control | dose: 5.0 mg/kg/injection, schedule: Q01DX009 (ip), vehicle: saline 102 % of control

O=C(CC(=O)C(F)(F)F)c1csc2ccccc12
inactive: [1] 95 % of control | dose: 12.5 mg/kg/injection, schedule: Q04DX003 (ip), vehicle: saline with Tween-80 100 % of control | [2] 100 % of control | dose: 25.0 mg/kg/injection, schedule: Q04DX003 (ip), vehicle: saline with Tween-80 100 % of control | [3] 109 % of control | dose: 50.0 mg/kg/injection, schedule: Q04DX003 (ip), vehicle: saline with Tween-80 109 % of control

Oc1ccc(/C=N/NC(=S)NN2CCOCC2)nc1
inactive: dose: 3.12 mg/kg/injection, schedule: Q01DX009 (ip), vehicle: Klucel (hydroxypropylcellulose) (HPC) 110 % of control | dose: 6.25 mg/kg/injection, schedule: Q01DX009 (ip), vehicle: Klucel (hydroxypropylcellulose) (HPC) 109 % of control | dose: 12.5 mg/kg/injection, schedule: Q01DX009 (ip), vehicle: Klucel (hydroxypropylcellulose) (HPC) 104 % of control | dose: 25.0 mg/kg/injection, schedule: Q01DX009 (ip), vehicle: Klucel (hydroxypropylcellulose) (HPC) 111 % of control

CC1OC(OC2C(OC3C(OC4CCC5(C)C(CCC6(C)C5CC=C5C7CC(C)(C)CCC7(C(=O)O)CCC56C)C4(C)C)OCC(O)C3O)OC(CO)C(O)C2O)C(O)C(O)C1O (stereo not drawn)
inactive: dose: 3.75 mg/kg/injection, schedule: Q01DX005 (ip), vehicle: distilled water + Tween-80 98 % of control | dose: 7.5 mg/kg/injection, schedule: Q01DX005 (ip), vehicle: distilled water + Tween-80 100 % of control

O=C(O)CCN(Cl)Cl
inactive: dose: 60.0 mg/kg/injection, schedule: Q01DX005 (ip), vehicle: saline 98 % of control | dose: 120.0 mg/kg/injection, schedule: Q01DX005 (ip), vehicle: saline 104 % of control | dose: 240.0 mg/kg/injection, schedule: Q01DX005 (ip), vehicle: saline 95 % of control

CCOP(=O)(c1ccccc1)N1CCOCC1 (stereo not drawn)
inactive: [4] 105 % of control | [5] 108 % of control | [6] 95 % of control

CSc1sc(C#N)c2nc3c(nc12)-c1cccc2cccc-3c12
inactive: dose: 50.0 mg/kg/injection, schedule: Q04DX002 (ip), vehicle: saline with Tween-80 88 % of control | dose: 100.0 mg/kg/injection, schedule: Q04DX002 (ip), vehicle: saline with Tween-80 88 % of control | dose: 200.0 mg/kg/injection, schedule: Q04DX002 (ip), vehicle: saline with Tween-80 91 % of control

NC(=S)N/N=C/c1c(Br)nc2n1CCS2
inactive: [7] 99 % of control | [8] 92 % of control | dose: 400.0 mg/kg/injection, schedule: Q01DX001 (ip), vehicle: Klucel (hydroxypropylcellulose) (HPC) 93 % of control

CCOc1ccc(N=Nc2c(C)nn(C(N)=S)c2OCC)cc1
inactive: [9] 100 % of control | dose: 30.0 mg/kg/injection, schedule: Q01DX005 (ip), vehicle: Klucel (hydroxypropylcellulose) (HPC) 97 % of control

O=C1C(=O)N(c2ccc([N+](=O)[O-])cc2)C(=O)N1c1ccc([N+](=O)[O-])cc1
inactive: [10] 112 % of control | dose: 120.0 mg/kg/injection, schedule: Q01DX005 (ip), vehicle: saline with Tween-80 95 % of control | dose: 240.0 mg/kg/injection, schedule: Q01DX005 (ip), vehicle: saline with Tween-80 95 % of control

Cc1cc2nnc(C)n2c(C)n1
inactive: [4] 95 % of control | [5] 96 % of control | [6] 93 % of control

CC(CC(=O)c1ccccc1)=Nc1ccccc1
inactive: dose: 100.0 mg/kg/injection, schedule: Q01DX001 (ip), vehicle: saline sonified 110 % of control | dose: 200.0 mg/kg/injection, schedule: Q01DX001 (ip), vehicle: saline sonified 100 % of control | dose: 400.0 mg/kg/injection, schedule: Q01DX001 (ip), vehicle: saline sonified 100 % of control

O=c1[nH]cc(B(O)O)c(=O)[nH]1
inactive: [11] 106 % of control | dose: 200.0 mg/kg/injection, schedule: Q01DX009 (ip), vehicle: saline 113 % of control | dose: 400.0 mg/kg/injection, schedule: Q01DX009 (ip), vehicle: saline 113 % of control

COc1cccc(N2CCN(CC(O)COc3cc4c(c5c3CCCC5)CCCC4)CC2)c1 (stereo not drawn)
inactive: dose: 100.0 mg/kg/injection, schedule: Q04DX003 (ip), vehicle: Klucel (hydroxypropylcellulose) (HPC) 93 % of control | dose: 200.0 mg/kg/injection, schedule: Q04DX003 (ip), vehicle: Klucel (hydroxypropylcellulose) (HPC) 92 % of control | dose: 400.0 mg/kg/injection, schedule: Q04DX003 (ip), vehicle: Klucel (hydroxypropylcellulose) (HPC) 91 % of control

CCCCC(=O)c1c(O)c2ccccc2oc1=O
inactive: dose: 15.0 mg/kg/injection, schedule: Q01DX005 (ip), vehicle: saline with Tween-80 100 % of control | dose: 30.0 mg/kg/injection, schedule: Q01DX005 (ip), vehicle: saline with Tween-80 97 % of control | [10] 116 % of control and 94 % of control

NCC12CC3CC(CC(C3)C1)C2
inactive: [1] 103 % of control | [2] 102 % of control | [3] 100 % of control and 102 % of control

O=C1CC[C@H]2[C@@H]3N1c1ccccc1[C@@]31CCN3C/C(=C/CBr)[C@@H]2C[C@H]31
inactive: dose: 7.5 mg/kg/injection, schedule: Q01DX005 (ip), vehicle: Klucel (hydroxypropylcellulose) (HPC) 100 % of control | [9] 102 % of control

Nc1ccc(C2=Cc3ccc(N)cc3S2(=O)=O)cc1
inactive: dose: 100.0 mg/kg/injection, schedule: Q04DX002 (ip), vehicle: saline 99 % of control | dose: 200.0 mg/kg/injection, schedule: Q04DX002 (ip), vehicle: saline 99 % of control | dose: 400.0 mg/kg/injection, schedule: Q04DX002 (ip), vehicle: saline 101 % of control

CCN1C(=O)/C(=C/C=C/N(C)c2ccccc2)SC1=S
inactive: dose: 50.0 mg/kg/injection, schedule: Q01DX009 (ip), vehicle: saline 112 % of control | [11] 103 % of control

C=CC1(C)OC(=NC(C)(C)CO)c2cc(C)c(OC)cc21 (stereo not drawn)
inactive: [12] 98 % of control | [13] 97 % of control

C#CC(C)C(C(C)=O)C(=O)c1ccccc1.[C-]#[O+].[C-]#[O+].[C-]#[O+].[C-]#[O+].[C-]#[O+].[C-]#[O+].[Co].[Co] (stereo not drawn)
inactive: dose: 12.5 mg/kg/injection, schedule: Q01DX005 (ip), vehicle: Klucel (hydroxypropylcellulose) (HPC) 108 % of control | dose: 25.0 mg/kg/injection, schedule: Q01DX005 (ip), vehicle: Klucel (hydroxypropylcellulose) (HPC) 101 % of control | dose: 50.0 mg/kg/injection, schedule: Q01DX005 (ip), vehicle: Klucel (hydroxypropylcellulose) (HPC) 104 % of control and 95 % of control

Nc1[nH]nc2nc(-c3ccccc3)cnc12
inactive: [2] 90 % of control | [3] 86 % of control | [14] 90 % of control | dose: 100.0 mg/kg/injection, schedule: Q04DX003 (ip), vehicle: saline with Tween-80 90 % of control | dose: 200.0 mg/kg/injection, schedule: Q04DX003 (ip), vehicle: saline with Tween-80 90 % of control | dose: 400.0 mg/kg/injection, schedule: Q04DX003 (ip), vehicle: saline with Tween-80 90 % of control

O=C1CCCc2[nH]c3ccc(F)cc3c21
inactive: [12] 91 % of control | [13] 90 % of control | dose: 200.0 mg/kg/injection, schedule: Q01DX005 (ip), vehicle: saline with Tween-80 88 % of control

O=[N+]([O-])c1ccc(N=Nc2ccc(O)cc2O)cc1
inactive: [4] 100 % of control | [5] 114 % of control | [6] 115 % of control

N#CCCSC(=S)C1CCCC1=N (stereo not drawn)
inactive: [1] 114 % of control and 123 % of control | [2] 110 % of control and 116 % of control | [3] 104 % of control and 109 % of control | [14] 102 % of control and 116 % of control

COc1cccc(OCC(=O)O)c1OC
inactive: [7] 98 % of control | [8] 97 % of control
